In ChEMBL document CHEMBL4699655, “Optimization of the In Vivo Potency of Pyrazolopyrimidine MALT1 Protease Inhibitors by Reducing Metabolism and Increasing Potency in Whole Blood” (J Med Chem, 2020):
≈ marks a conversion by molar mass, not a printed value. Calls of active or inactive are those of the source. The rule behind the calls is not given here.

Tests used:
[1] = Toxicity in SCID-bg mouse xenografted with human OCILY3 cells assessed as effect on body weight at 30 mg/kg, po BID for 49 days; type: organism-based; settings: in vivo, 1176 h, time 49 day
Procathepsin L = Procathepsin L (Homo sapiens, UniProt P07711); assay: Inhibition of cathepsin L (unknown origin)
[2] = Intrinsic clearance in rat liver microsomes; type: ADME, Microsome; settings: read-out: CLH
BJAB [3] = assay: Growth inhibition of human BJAB cells grown in soft agar at 19.5 to 10000 nM; type: functional, cell-based; settings: dose nM 19.5-10000
Caspase-3 = molecular target: T1, Caspase-3 (Homo sapiens, UniProt P42574); assay: Inhibition of caspase-3 (unknown origin)
T1 sequence (P42574 whole entry): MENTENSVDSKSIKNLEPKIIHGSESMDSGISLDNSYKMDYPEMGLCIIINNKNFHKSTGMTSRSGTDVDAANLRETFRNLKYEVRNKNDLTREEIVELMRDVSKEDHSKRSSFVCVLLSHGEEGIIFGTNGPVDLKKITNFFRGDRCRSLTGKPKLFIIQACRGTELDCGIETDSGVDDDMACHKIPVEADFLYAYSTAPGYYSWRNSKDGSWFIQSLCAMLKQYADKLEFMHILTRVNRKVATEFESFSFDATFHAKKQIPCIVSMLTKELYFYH

[4] = Cmax in Sprague-Dawley rat at 3 mg/kg, po; type: ADME, organism-based; design: route oral, dose 3 mg/kg; settings: in vivo
Cathepsin B = Cathepsin B (Homo sapiens, UniProt P07858); assay: Inhibition of cathepsin B (unknown origin)
[5] = Terminal half life in Sprague-Dawley rat at 1 mg/kg, iv; type: ADME, organism-based; settings: in vivo, read-out: beta t1/2 (converted)
[6] = Cmax in Balb/C mouse at 3 mg/kg, po; type: ADME, organism-based; design: route oral, dose 3 mg/kg; settings: in vivo
TMD8 = assay: Inhibition of IL-10 production in tumor of CD79B-mutant containing human TMD8 cells xenografted in SCID-bg mouse at 30 mg/kg, po administered as single dose; type: functional, organism-based
[7] = Protein binding in rat plasma; type: ADME, cell-free; settings: read-out: PPB (converted)
Cytochrome P450 2D6 = Cytochrome P450 2D6 (Homo sapiens, UniProt P10635); assay: Inhibition of CYP2D6 (unknown origin)
[8] = Apparent volume of distribution at steady state in Sprague-Dawley rat at 1 mg/kg, iv; type: ADME, organism-based; settings: in vivo, read-out: Vdss(app)
OCI-Ly3 [9] = assay: Antitumor activity against human OCILY3 cells xenografted in SCID-bg mouse assessed as inhibition of tumor growth by measuring T/C ratio at 30 mg/kg, po QD for 49 days; type: functional; settings: time 49 day
Cytochrome P450 2C9 = Cytochrome P450 2C9 (Homo sapiens, UniProt P11712); assay: Inhibition of CYP2C9 (unknown origin)
[10] = Oral bioavailability in Balb/C mouse at 3 mg/kg; type: ADME, organism-based; settings: in vivo
Cathepsin S = Cathepsin S (Homo sapiens, UniProt P25774); assay: Inhibition of cathepsin S (unknown origin)
[11] = Thermodynamic solubility of the compound
Rattus norvegicus [12] = assay: Anti-autoimmune disease activity in OFA rat model of T-cell dependent B cell response assessed as reduction in SRBC-induced IgM producing B cells at 3 mg/kg, po QD for 4 days starting 2 days prior to immunization by ex vivo plaque forming assay relative to control; type: functional; settings: 96 h, read-out: INH, time 4 day
[13] = AUC (0 to 24 hrs) in Sprague-Dawley rat at 3 mg/kg, po; type: ADME, organism-based; design: time < 24 hr, route oral, dose 3 mg/kg; settings: in vivo
[14] = Clearance in Sprague-Dawley rat at 1 mg/kg, iv; type: ADME, organism-based; settings: in vivo
Dipeptidyl peptidase 1 = Dipeptidyl peptidase 1 (Homo sapiens, UniProt P53634); assay: Inhibition of cathepsin C (unknown origin)
Rattus norvegicus [15] = assay: Anti-autoimmune disease activity in OFA rat model of T-cell dependent B cell response assessed as reduction in SRBC-induced IgM producing B cells at 0.3 mg/kg, po QD for 4 days starting 2 days prior to immunization by ex vivo plaque forming assay relative to control; type: functional; settings: 96 h, read-out: INH, time 4 day
[16] = Cmax in blood of OFA rat model of T-cell dependent B cell response at 3 mg/kg, po QD for 4 days starting 2 days prior to immunization and measured after 3 hrs; type: ADME, organism-based; design: route oral, dose 3 mg/kg, time 4 day
[17] = Cmax in blood of OFA rat model of T-cell dependent B cell response at 1 mg/kg, po QD for 4 days starting 2 days prior to immunization and measured after 24 hrs; type: ADME, organism-based; design: route oral, dose 1 mg/kg, time 5 day
OCI-Ly3 [18] = assay: Antitumor activity against human OCILY3 cells xenografted in SCID-bg mouse assessed as tumor regression level at 30 mg/kg, po BID for 49 days; type: functional; settings: time 49 day
OCI-Ly3 [19] = assay: Inhibition of ROS production in human OCILY3 cells
OCI-Ly3 [20] = assay: Growth inhibition of human OCILY3 cells grown in soft agar
[21] = Cmax in blood of OFA rat model of T-cell dependent B cell response at 0.3 mg/kg, po QD for 4 days starting 2 days prior to immunization and measured after 24 hrs; type: ADME, organism-based; design: route oral, dose 0.3 mg/kg, time 5 day
[22] = Cmax in blood of OFA rat model of T-cell dependent B cell response at 1 mg/kg, po QD for 4 days starting 2 days prior to immunization and measured after 3 hrs; type: ADME, organism-based; design: route oral, dose 1 mg/kg, time 4 day
[23] = Lipophilicity, logP of the compound; settings: octanol/water
[24] = Cmax in blood of OFA rat model of T-cell dependent B cell response at 0.3 mg/kg, po QD for 4 days starting 2 days prior to immunization and measured after 3 hrs; type: ADME, organism-based; design: route oral, time 4 day, dose 0.3 mg/kg
Cytochrome P450 3A4 = Cytochrome P450 3A4 (Homo sapiens, UniProt P08684); assay: Inhibition of CYP3A4 (unknown origin)
[25] = Apparent permeability from apical to basolateral side in human Caco-2 cells
[26] = molecular target: Voltage-gated inwardly rectifying potassium channel KCNH2 (Homo sapiens, UniProt Q12809); assay: Inhibition of human ERG by dofetilide binding assay
[27] = Intrinsic clearance in human liver microsomes; type: ADME, Microsome; settings: read-out: CLH
OCI-Ly3 [28] = assay: Antitumor activity against human OCILY3 cells xenografted in SCID-bg mouse assessed as tumor regression level at 30 mg/kg, po BID for 53 days; type: functional; settings: time 53 day
[29] = Oral bioavailability in Sprague-Dawley rat at 3 mg/kg; type: ADME, organism-based; settings: in vivo
[30] = Toxicity in SCID-bg mouse xenografted with human OCILY3 cells assessed as effect on body weight at 30 mg/kg, po QD for 49 days; type: organism-based; settings: in vivo, 1176 h, time 49 day
BJAB [31] = assay: Growth inhibition of human BJAB cells grown in soft agar
[32] = Clearance in Balb/C mouse at 1 mg/kg, iv; type: ADME, organism-based; settings: in vivo
OCI-Ly3 [33] = assay: Antitumor activity against human OCILY3 cells xenografted in SCID-bg mouse assessed as inhibition of tumor growth by measuring T/C ratio at 30 mg/kg, po QD for 53 days; type: functional, organism-based; settings: time 53.0 day
[34] = Terminal half life in Balb/C mouse at 1 mg/kg, iv; type: ADME, organism-based; settings: in vivo, read-out: beta t1/2 (converted)
OCI-Ly3 [35] = assay: Growth inhibition of human OCILY3 cells grown in soft agar at 19.5 to 10000 nM; type: functional, cell-based; settings: dose nM 19.5-10000
[36] = Intrinsic clearance in mouse liver microsomes; type: ADME, Microsome; settings: read-out: CLH
Rattus norvegicus [37] = assay: Anti-autoimmune disease activity in OFA rat model of T-cell dependent B cell response assessed as reduction in SRBC-induced IgM producing B cells dosed orally once daily for 4 days starting 2 days prior to immunization by ex vivo plaque forming assay relative to control; type: functional
[38] = AUC (0 to 24 hrs) in Balb/C mouse at 3 mg/kg, po; type: ADME, organism-based; design: time < 24 hr, route oral, dose 3 mg/kg; settings: in vivo
[39] = Protein binding in human plasma; type: ADME, cell-free; settings: read-out: PPB (converted)
[40] = Cmax in blood of OFA rat model of T-cell dependent B cell response at 3 mg/kg, po QD for 4 days starting 2 days prior to immunization and measured after 24 hrs; type: ADME, organism-based; design: route oral, dose 3 mg/kg, time 5 day
[41] = Apparent volume of distribution at steady state in Balb/C mouse at 1 mg/kg, iv; type: ADME, organism-based; settings: in vivo, read-out: Vdss(app)
Cathepsin K = molecular target: T2, Cathepsin K (Homo sapiens, UniProt P43235); assay: Inhibition of cathepsin K (unknown origin)
T2 sequence (P43235 whole entry): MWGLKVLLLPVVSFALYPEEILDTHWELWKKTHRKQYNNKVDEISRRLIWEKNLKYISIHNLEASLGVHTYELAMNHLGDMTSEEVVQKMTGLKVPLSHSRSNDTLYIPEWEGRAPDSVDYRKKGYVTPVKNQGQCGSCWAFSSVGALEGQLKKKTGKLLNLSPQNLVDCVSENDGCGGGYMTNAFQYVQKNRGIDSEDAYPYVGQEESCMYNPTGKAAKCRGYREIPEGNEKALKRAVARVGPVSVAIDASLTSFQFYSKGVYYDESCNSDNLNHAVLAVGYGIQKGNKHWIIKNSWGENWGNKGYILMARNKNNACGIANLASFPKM

Cytochrome P450 3A4, sequence (P08684 whole entry): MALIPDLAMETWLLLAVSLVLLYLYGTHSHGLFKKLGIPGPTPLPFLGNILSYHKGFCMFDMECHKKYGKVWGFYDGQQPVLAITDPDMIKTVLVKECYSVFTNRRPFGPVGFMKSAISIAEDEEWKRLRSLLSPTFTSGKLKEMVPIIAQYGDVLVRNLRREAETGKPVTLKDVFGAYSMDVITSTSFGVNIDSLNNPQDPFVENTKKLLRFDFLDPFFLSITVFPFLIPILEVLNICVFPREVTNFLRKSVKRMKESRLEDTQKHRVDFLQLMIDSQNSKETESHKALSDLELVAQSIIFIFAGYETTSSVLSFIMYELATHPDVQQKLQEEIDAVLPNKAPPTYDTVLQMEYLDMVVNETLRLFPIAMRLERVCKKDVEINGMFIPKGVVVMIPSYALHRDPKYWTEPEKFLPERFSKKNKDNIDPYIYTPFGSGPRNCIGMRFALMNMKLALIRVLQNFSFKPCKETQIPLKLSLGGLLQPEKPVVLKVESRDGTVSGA
Dipeptidyl peptidase 1, sequence (P53634 25-134 limits assumed): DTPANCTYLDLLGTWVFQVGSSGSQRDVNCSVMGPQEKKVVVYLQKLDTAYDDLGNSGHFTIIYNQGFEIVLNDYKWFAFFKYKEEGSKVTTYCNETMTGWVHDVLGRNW
Dipeptidyl peptidase 1, sequence (P53634 231-394 limits assumed): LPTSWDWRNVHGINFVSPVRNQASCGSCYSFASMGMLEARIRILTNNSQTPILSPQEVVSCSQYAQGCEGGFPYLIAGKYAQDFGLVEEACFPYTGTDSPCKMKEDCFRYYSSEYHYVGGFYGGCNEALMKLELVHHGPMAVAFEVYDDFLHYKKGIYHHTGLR
Dipeptidyl peptidase 1, sequence (P53634 395-463 limits assumed): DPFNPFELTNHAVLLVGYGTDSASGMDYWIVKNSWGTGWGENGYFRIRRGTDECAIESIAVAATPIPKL
Cytochrome P450 2C9, sequence (P11712 whole entry): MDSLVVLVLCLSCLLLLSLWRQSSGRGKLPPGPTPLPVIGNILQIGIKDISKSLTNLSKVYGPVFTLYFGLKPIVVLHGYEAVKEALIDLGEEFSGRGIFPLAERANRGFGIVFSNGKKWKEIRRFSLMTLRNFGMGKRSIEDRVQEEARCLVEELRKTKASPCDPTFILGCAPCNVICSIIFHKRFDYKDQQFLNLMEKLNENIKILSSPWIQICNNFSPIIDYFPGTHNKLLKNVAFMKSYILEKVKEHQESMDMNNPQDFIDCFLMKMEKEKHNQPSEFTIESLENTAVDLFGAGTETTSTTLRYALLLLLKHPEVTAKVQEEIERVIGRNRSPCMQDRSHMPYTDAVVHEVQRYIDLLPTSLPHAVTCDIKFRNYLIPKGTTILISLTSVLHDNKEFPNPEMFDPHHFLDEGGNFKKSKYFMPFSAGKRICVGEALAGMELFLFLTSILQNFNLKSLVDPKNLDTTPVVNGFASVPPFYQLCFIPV
Voltage-gated inwardly rectifying potassium channel KCNH2, sequence (Q12809 whole entry): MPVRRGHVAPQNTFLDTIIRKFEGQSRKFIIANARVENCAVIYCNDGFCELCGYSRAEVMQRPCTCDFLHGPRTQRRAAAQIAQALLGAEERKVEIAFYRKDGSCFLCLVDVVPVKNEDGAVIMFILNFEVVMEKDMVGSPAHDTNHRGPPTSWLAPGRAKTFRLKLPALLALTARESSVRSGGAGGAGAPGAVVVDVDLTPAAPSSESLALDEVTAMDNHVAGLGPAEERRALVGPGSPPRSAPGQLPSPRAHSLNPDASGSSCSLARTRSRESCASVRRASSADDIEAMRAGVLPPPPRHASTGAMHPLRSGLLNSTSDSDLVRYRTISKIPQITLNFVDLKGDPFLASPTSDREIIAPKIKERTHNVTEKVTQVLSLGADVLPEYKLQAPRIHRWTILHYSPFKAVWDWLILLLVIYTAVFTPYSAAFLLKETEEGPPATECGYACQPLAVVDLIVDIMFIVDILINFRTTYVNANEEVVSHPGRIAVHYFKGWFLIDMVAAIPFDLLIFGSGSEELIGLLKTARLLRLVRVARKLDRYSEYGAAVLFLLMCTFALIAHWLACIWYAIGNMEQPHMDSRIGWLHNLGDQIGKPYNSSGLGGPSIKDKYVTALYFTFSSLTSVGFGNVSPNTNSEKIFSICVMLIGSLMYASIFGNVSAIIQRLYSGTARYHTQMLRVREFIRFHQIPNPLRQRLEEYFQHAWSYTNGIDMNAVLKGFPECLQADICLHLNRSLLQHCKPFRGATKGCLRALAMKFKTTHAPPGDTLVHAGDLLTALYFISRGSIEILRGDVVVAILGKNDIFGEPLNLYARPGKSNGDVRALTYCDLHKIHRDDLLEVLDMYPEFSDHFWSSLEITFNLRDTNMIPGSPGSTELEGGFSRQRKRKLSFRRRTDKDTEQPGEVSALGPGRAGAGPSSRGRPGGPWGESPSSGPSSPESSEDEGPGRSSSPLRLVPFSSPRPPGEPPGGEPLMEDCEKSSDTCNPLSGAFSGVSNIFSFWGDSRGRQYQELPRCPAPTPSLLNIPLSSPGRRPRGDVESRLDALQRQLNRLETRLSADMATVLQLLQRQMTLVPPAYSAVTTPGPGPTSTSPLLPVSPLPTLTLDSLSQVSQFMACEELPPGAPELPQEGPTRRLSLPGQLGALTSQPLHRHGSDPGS
Procathepsin L, sequence (P07711 whole entry): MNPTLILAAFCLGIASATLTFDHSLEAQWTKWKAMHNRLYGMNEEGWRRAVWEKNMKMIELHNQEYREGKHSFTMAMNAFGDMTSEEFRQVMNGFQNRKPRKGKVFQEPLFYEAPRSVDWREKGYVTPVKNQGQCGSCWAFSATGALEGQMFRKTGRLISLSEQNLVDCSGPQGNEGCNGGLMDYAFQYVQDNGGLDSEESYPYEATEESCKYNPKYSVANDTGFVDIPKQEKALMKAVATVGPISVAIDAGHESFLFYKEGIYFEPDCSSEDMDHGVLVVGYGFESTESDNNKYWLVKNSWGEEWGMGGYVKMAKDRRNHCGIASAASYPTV
Cytochrome P450 2D6, sequence (P10635 whole entry): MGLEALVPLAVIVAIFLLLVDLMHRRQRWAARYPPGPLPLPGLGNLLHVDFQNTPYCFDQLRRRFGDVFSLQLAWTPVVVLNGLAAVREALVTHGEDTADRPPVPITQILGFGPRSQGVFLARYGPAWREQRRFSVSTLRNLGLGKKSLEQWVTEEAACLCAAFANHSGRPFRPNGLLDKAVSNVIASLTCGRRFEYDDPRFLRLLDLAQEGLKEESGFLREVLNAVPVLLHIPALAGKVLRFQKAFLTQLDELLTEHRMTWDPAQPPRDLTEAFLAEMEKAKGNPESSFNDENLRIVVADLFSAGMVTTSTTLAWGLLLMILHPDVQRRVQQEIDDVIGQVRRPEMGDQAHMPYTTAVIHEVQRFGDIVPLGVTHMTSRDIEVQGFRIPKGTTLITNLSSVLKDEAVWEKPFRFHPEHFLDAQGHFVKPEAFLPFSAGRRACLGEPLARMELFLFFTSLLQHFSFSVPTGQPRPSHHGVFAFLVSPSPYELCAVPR
Cathepsin S, sequence (P25774 whole entry): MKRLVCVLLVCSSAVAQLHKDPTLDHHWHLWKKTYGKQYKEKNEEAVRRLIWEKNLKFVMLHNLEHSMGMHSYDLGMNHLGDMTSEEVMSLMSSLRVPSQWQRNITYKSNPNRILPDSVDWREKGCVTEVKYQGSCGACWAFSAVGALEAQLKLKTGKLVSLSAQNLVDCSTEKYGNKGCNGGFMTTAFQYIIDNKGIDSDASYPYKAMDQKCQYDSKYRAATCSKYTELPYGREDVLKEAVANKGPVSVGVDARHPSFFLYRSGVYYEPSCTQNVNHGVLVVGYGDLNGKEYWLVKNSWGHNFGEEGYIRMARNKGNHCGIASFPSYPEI

With `CO[C@@H](C)c1c(NC(=O)Nc2cnc(-n3nccn3)c(Cl)c2)cnc2cc(Cl)nn12` as the molecule, how does the Activity [1] read?
Its Activity is “Non-Toxic”.

And the IC50 (Procathepsin L)?
Its IC50 is > 100 µM.

What about the microsomal CLint [2] of the same molecule?
The microsomal CLint was < 25 µL/min/mg.

And the “growth inhibition (GI)” value (BJAB [3])?
Its value is “inactive”.

What about the IC50 (Caspase-3) of the same molecule?
The IC50 was > 100 µM.

What about the Cmax [4] of the same molecule?
Its Cmax is 700 nM.

And the IC50 (Cathepsin B)?
Its IC50 is > 100 µM.

What about the half-life [5] of the same molecule?
The half-life was 8.5 h.

And the Cmax [6]?
The Cmax was 1700 nM.

And the inhibition (TMD8)?
Its inhibition is “Active”.

What about the fraction unbound [7] of the same molecule?
The fraction unbound was 0.03.

What about the IC50 (Cytochrome P450 2D6) of the same molecule?
Its IC50 is > 20 µM.

What about the Vd [8] of the same molecule?
Its Vd is 4.2 L/kg.

What about the T/C (OCI-Ly3 [9]) of the same molecule?
The T/C was 32%.

And the IC50 (Cytochrome P450 2C9)?
The IC50 was > 20 µM.

What about the bioavailability [10] of the same molecule?
The bioavailability was 83%.

And the IC50 (Cathepsin S)?
The IC50 was > 100 µM.

What about the solubility thermodynamic [11] of the same molecule?
The solubility thermodynamic was 4 µg/mL (≈ 8.92 µM).

And the inhibition in vivo at 3 mg/kg (Rattus norvegicus [12])?
Its inhibition in vivo at 3 mg/kg is 97%.

And the AUC [13]?
Its AUC is 13.2 µM·h.

What about the clearance [14] of the same molecule?
Its clearance is 7 mL/min/kg.

And the IC50 (Dipeptidyl peptidase 1)?
Its IC50 is > 100 µM.

What about the inhibition in vivo at 0.3 mg/kg (Rattus norvegicus [15]) of the same molecule?
Its inhibition in vivo at 0.3 mg/kg is 58%.

What about the Cmax [16] of the same molecule?
The Cmax was 2300 nM.

And the Cmax [17]?
Its Cmax is 260 nM.

What about the Activity (OCI-Ly3 [18]) of the same molecule?
Its Activity is -20%.

What about the IC50 (OCI-Ly3 [19]) of the same molecule?
The IC50 was 0.03 µM.

What about the IC50 (OCI-Ly3 [20]) of the same molecule?
The IC50 was 0.24 µM.

And the Cmax [21]?
Its Cmax is 50 nM.

And the Cmax [22]?
Its Cmax is 670 nM.

And the logP [23]?
Its logP is 3.4.

What about the Cmax [24] of the same molecule?
The Cmax was 130 nM.

And the IC50 (Cytochrome P450 3A4)?
Its IC50 is > 20 µM.

And the Papp A→B [25]?
The Papp A→B was 12.8 ×10⁻⁶ cm/s.

And the IC50 [26]?
Its IC50 is > 30 µM.

What about the microsomal CLint [27] of the same molecule?
Its microsomal CLint is < 25 µL/min/mg.

What about the Activity (OCI-Ly3 [28]) of the same molecule?
Its Activity is -50%.

What about the bioavailability [29] of the same molecule?
Its bioavailability is 79%.

And the Activity [30]?
The Activity was “Non-Toxic”.

What about the IC50 (BJAB [31]) of the same molecule?
The IC50 was > 10 µM.

And the clearance [32]?
Its clearance is 5 mL/min/kg.

What about the Activity (OCI-Ly3 [33]) of the same molecule?
The Activity was “Active”.

And the half-life [34]?
The half-life was 3.7 h.

What about the “growth inhibition (GI)” value (OCI-Ly3 [35]) of the same molecule?
Its value is “Dose-dependent effect”.

And the microsomal CLint [36]?
The microsomal CLint was < 25 µL/min/mg.

What about the ED50 (Rattus norvegicus [37]; po, 96 h, time 4 day) of the same molecule?
Its ED50 is 0.3 mg/kg.

What about the Activity (Rattus norvegicus [37]; time 4.0 day) of the same molecule?
The Activity was “Dose-dependent effect”.

And the AUC [38]?
Its AUC is 20.1 µM·h.

What about the fraction unbound [39] of the same molecule?
Its fraction unbound is 0.017.

And the Cmax [40]?
The Cmax was 1000 nM.

What about the Vd [41] of the same molecule?
Its Vd is 1.4 L/kg.

And the IC50 (Cathepsin K)?
The IC50 was > 100 µM.
